{
  "source": "patent US20210138274A1",
  "about": "“ACCUMULATIVE BORON 10 MEDICINE FOR BORON NEUTRON CAPTURE THERAPY FOR SELECTIVELY OR LOCALLY TARGETING TUMOR TISSUES IN SHORT TIME” (HIROSAKI UNIVERSITY, priority 2018, published 2021)",
  "key": {"[1]": {"tested_on": "tumor-bearing mice seeded in the thigh with murine bladder cancer cell strain MBT2", "test": "Neutron irradiation test (tumor volume, hot group vs cold group)", "type": "in vivo", "details": "7 mg/kg tail vein, neutron irradiation 40 minutes after administration; for effect of reducing the tumor volume, hot group versus cold group: tumor volumes (mm^3) measured for 21 days, FIGS. 5, 6", "method": "IF7-^10BPA was administered to the tail vein of tumor-bearing mice seeded in the thigh with murine bladder cancer cell strain MBT2 at a dosage amount of 7 mg/kg. Thereafter, tumor volumes (mm^3) thereof were measured for 21 days, with respect to a group (hot group), which was irradiated 40 minutes after the tail-vein administration with neutrons for 30 minutes under the following conditions and a group (cold group), which was not irradiated. In the drawing, * represents p<0.05.\n(1) Neutron fluence (cm^−2·s^−1) 2.1E^+12 (2.1×10^12) to 4.6E^+12 (2) Physical dose (Gy) Thermal neutrons: 2.8E^−1 to 6.1E^−1 Epithermal neutrons: 3.0E^−2 to 6.5E^−2 Fast neutrons: 2.1E^−1 to 4.6E^−1 Gamma rays: 2.1E^−1 to 4.6E^−1 Total: 8.9E^−1 to 1.5E^0\nAdministration was performed in the same manner as in Example 5, except that IF7-^10BSH was administered instead of IF7-^10BPA. Thereafter, tumor volumes (mm^3) were measured for 21 days with respect to the hot group which was irradiated with neutrons 40 minutes after the administration and the cold group which was not irradiated.\nIF7-^10BPA was administered to tail vein of the tumor-bearing mice seeded with murine bladder cancer cell strain MBT2 at a dosage amount of 7 mg/kg. Thereafter, tumor volumes (mm^3) were measured for 21 days with respect to a hot group which was irradiated with neutrons 40 minutes after the tail-vein administration and a cold group which was not irradiated.\nThe administration was performed in the same manner as in Example 7, except that 1BPA was administered instead of IF7-^10BPA, tumor volumes (mm^3) were measured for 21 days with respect to the hot group irradiated 40 minutes after the administration with neutrons and the cold group which was not irradiated."}, "[2]": {"tested_on": "tumor-bearing mice seeded on the thigh with a murine bladder cancer cell MBT2", "details": "mouse, in vivo", "method": "Tumor accumulation ability was tested in tumor-bearing mice (7 mm in tumor diameter) seeded on the thigh with a murine bladder cancer cell MBT2, with respect to IF7-^10BPA synthesized in Synthesis Example 1 above and IF7-^10BSH synthesized in Synthesis Example 2 above. 100 μL (175 μg) of IF7-^10BPA or IF7-^10BSH adjusted to 7 mg/kg was administered to the tail vein of the tumor-bearing mice. ^10B levels (ppm) in the organs of the tumor-bearing mice were measured 5, 10, and 20 minutes after the tail-vein administration by the PGA-method.\n^10B levels in the respective organs of the tumor-bearing mice were measured in the same manner as in Example 1, except that the measurement was performed 40 minutes after the administration in addition to 5, 10 and 20 minutes, the number of n in the respective data was 3 or more, and the measurement results were indicated in violin plots.\n^10B levels in the respective organs of the tumor-bearing mice were measured in the same manner as in Example 3, except that instead of IF7-^10BPA, [10B]boronophenylalanine (^10BPA) in the same concentration was administered. The results are indicated in violin plots in FIG. 3B.\n^10B levels in the respective organs of the tumor-bearing mice were measured in the same manner as in Comparative Example 2, except that the concentration of ^10BPA was changed from 7 mg/kg to 100 mg/kg. […]"}, "[3]": {"tested_on": "tumor-bearing mice (murine bladder cancer cell MBT2)", "test": "Tumor accumulation ability test, Comparative Example 1 (^10B levels in organs, ICP-AES method)", "type": "in vivo", "details": "FIG. 2", "method": "Additionally, as Comparative Example 1, a tumor accumulation ability test was similarly performed using R-D-fructopyranose, 2′ position of which is esterified with [10B]boronophenylalanine group represented by the formula (a) (hereinafter, simply referred to as “^10BPA-fructose”). 100 μL (2,000 μg) of ^10BPA-fructose whose dosage amount was increased to 100 mg/kg was administered to the tail vein of tumor-bearing mice. ^10B levels (ppm) in the respective organs of the tumor-bearing mice were measured 20, 40, and 60 minutes after the tail-vein administration by ICP-AES method. FIG. 2 is a drawing indicating ^10B levels (ppm) in the organs of the tumor-bearing mice at 20, 40, and 60 minutes after tail-vein administration of 100 μL (2,000 μg) of ^10BPA-fructose."}},
  "note": "Entries after “also recorded” stand apart in the source; their conditions may differ. Where no end group is shown, it is not given here. Side-chain parts run from the residue outwards. EMCS = N-(6-maleimidocaproyloxy)succinimide crosslinker",
  "data": [
    {"substance": "IF7-^10BPA: peptide IFLLWQRCRR (SEQ ID NO: 2) crosslinked with EMCS between cysteine thiol and terminal amino group of a ^10B boronophenylalanine compound (IFLLWQRC([EMCS-(10B)boronophenylalanine])RR)", "values": [
      {"measurement": "effect of reducing the tumor volume, hot group IF7-^10BPA (Example 7) versus hot group ^10BPA (Comparative Example 5)", "setting": "[1]; 21 days, FIGS. 6A, 6B", "value": "effect of reducing the tumor volume was greater"},
      {"measurement": "effect of reducing the tumor volume, hot group versus cold group", "setting": "[1]", "value": "effect of reducing the tumor volume was pronounced; also recorded: more pronounced in the hot group"},
      {"measurement": "^10B level in the tumor compared with ^10BPA 100 mg/kg (Comparative Example 3)", "setting": "[2]", "value": "not inferior"}
    ]},
    {"substance": "IF7-^10BSH: peptide IFLLWQRKRR (SEQ ID NO: 3) crosslinked with EMCS between lysine amino group and thiol group of sodium [10B]borocaptate (IFLLWQRK([EMCS-sodium (10B)borocaptate])RR)", "values": [
      {"measurement": "effect of reducing the tumor volume, hot group versus cold group", "setting": "[1]", "value": "effect of reducing the tumor volume was pronounced"}
    ]},
    {"substance": "R-D-fructopyranose, 2′ position of which is esterified with [10B]boronophenylalanine group represented by the formula (a) [^10BPA-fructose]", "values": [
      {"measurement": "accumulation of ^10B in the tumor tissue", "setting": "[3]; 100 mg/kg (100 μL, 2,000 μg) tail vein, 20, 40, and 60 minutes after the administration", "value": "did not accumulate at all in the tumor tissue"},
      {"measurement": "discrimination of the tumor tissue from the other organs (^10B levels)", "setting": "[3]; 100 mg/kg tail vein, 20, 40, and 60 minutes", "value": "did not significantly discriminate the tumor tissue from the other organs"}
    ]}
  ]
}
